Measurements from patent EP0338042B1, “COMPOSITION AND METHOD FOR TREATING HEPATITIS VIRUS INFECTIONS USING 1-(2'-DEOXY-2'-FLUORO-BETA-D-ARABINOFURANOSYL)-5-ETHYLURACIL” (priority 1987, dated 1989).
In brackets after ≈: the same amount, converted by molar mass. Read-outs that look alike come from different tables or passages of the source. One block for each compound: values may come before it.

How the values were obtained:
[1] = biological target: T1, HBV DNA polymerase (Hepatitis B virus genotype D subtype ayw, UniProt P03156); experiment: DNA polymerase assay with purified virus particles; type: biochemical; conditions: for nature of inhibition (Lineweaver-Burk plots): ACVTP, FIACTP, BVdUTP versus dGTP, dCTP, dTTP respectively, similar for WHV DNA polymerase; for relative efficiency as inhibitor of HBV DNA polymerase: excess of nucleotides, similar results with WHV DNA polymerase; for IC50: concentration of inhibitor giving a 50% inhibition of DNA polymerase activity, read-out: ID₅₀ HBV DNA POLYMERASE; for ID₅₀ compared with FIACTP (times more): stated for HBV and WHV DNA polymerases
T1 construct: from tissue; host or cells: serum of an immunosuppressed, HBsAg-positive patient; virions purified on sucrose and CsCl gradients
T1 sequence (P03156 whole entry): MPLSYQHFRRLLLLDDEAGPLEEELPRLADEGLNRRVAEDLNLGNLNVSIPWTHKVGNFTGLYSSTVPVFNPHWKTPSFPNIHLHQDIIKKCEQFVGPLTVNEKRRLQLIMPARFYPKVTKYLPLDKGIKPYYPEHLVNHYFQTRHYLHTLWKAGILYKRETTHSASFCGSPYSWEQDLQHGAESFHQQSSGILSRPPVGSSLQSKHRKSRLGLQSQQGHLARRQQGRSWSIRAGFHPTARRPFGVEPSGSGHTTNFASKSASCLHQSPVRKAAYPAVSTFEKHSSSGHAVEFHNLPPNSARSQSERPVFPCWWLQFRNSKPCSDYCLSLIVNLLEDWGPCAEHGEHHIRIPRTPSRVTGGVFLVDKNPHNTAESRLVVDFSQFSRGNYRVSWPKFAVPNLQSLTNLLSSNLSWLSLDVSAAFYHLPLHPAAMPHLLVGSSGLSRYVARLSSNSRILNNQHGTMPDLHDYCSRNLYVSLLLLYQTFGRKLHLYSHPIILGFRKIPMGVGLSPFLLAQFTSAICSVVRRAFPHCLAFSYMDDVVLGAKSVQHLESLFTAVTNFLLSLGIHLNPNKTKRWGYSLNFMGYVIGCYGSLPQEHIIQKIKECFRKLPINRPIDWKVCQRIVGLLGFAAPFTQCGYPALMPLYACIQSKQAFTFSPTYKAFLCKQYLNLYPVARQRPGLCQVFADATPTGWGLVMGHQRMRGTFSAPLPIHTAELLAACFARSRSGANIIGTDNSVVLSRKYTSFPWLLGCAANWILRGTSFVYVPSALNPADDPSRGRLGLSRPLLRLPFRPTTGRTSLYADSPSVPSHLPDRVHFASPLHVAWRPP
From the text: (§1) HBV particles containing DNA polymerase activity were purified from the serum of an immunosuppressed patient, positive for HBsAG. WHV was obtained from a serum pool of five woodchucks (Marmota monax), chronic carriers of the virus. The woodchucks initially imported from Pennsylvania belonged to a colony followed for over one year by serological tests as reported in Hantz et al., J. Virol. Metho. 7: 45-55 (1983). Virus was purified by centrifugation on sucrose and isopycnic CsCl gradients.
(§2) DNA polymerase was assayed as described by Kaplan et al., J. Virol. 12: 995 (1973) with minor modification. The assay was performed in a 50 µl reaction mixture containing 50 mM Tris-HCl pH 7.5, 40 mM MgCl₂, 60 mM NH₄Cl, 100 µM each dATP, dCTP and dGTP, 0.2-0.7 µM [³H] dTTP (30 Ci/mmol), 10 mM 2-mercaptoethanol, 0.5% Nonidet P-40 and enzyme. The reaction was started by addition of the virus particles with 2-mercaptoethanol and Nonidet P 40. Incubation was at 37°C for 1 hour. Acid insoluble radioactive material was collected on a glass fiber filter (GF/C Whatman). Filters were washed 5 times with cold 5% trichloracetic acid containing 10 mM sodium pyrophosphate, then with 95% ethanol. Radioactivity of the dried filter was measured in a liquid scintillation counter.
(§3) The relative sensitivities of both enzymes to ACVTP, FIACTP and BVdUTP were compared using an excess of nucleotides. For each inhibitor, the concentration of the corresponding radioactive triphosphate was maintained at 2 to 3 times the Km value while the remaining nucleotides were in great excess (50 µM).

[2] = biological target: T2, WHV DNA polymerase (Woodchuck hepatitis B virus, UniProt P03160); experiment: DNA polymerase assay with purified virus particles; type: biochemical; conditions: read-out: ID₅₀ WHV DNA POLYMERASE
T2 construct: The reaction was started by addition of the virus particles with 2-mercaptoethanol and Nonidet P 40; from tissue; host or cells: serum pool of five chronically infected woodchucks (Marmota monax); virions purified on sucrose and CsCl gradients
T2 sequence (P03160 whole entry): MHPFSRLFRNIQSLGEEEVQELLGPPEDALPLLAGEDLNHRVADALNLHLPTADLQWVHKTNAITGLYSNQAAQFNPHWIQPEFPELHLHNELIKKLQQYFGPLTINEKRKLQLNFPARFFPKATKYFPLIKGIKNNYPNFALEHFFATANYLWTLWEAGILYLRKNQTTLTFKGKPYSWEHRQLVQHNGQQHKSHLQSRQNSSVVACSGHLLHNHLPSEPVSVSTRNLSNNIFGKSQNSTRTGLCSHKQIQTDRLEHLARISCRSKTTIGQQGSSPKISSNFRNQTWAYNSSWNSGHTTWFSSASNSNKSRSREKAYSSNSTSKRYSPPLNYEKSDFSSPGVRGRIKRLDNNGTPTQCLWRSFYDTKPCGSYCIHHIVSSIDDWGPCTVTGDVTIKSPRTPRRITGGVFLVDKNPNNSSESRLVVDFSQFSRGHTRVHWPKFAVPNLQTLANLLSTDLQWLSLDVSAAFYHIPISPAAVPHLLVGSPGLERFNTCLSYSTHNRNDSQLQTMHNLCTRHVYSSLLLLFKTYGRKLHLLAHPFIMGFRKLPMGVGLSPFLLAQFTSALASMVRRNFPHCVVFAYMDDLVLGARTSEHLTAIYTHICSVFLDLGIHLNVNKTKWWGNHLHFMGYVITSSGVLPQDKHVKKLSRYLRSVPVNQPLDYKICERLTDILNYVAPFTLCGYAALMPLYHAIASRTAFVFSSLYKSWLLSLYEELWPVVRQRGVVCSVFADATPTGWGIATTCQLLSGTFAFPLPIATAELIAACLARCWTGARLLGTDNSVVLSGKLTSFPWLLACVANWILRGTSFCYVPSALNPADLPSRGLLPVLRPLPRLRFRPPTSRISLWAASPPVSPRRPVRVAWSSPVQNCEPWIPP
From the text: as §1, §2, §3

[3] = tested on: woodchuck hepatitis virus (WHV); experiment: Inhibition of WHV replication in chronically infected woodchucks (DNA polymerase activity); type: in vivo, woodchucks (Marmota monax); conditions: for WHV DNA polymerase levels / WHV DNA polymerase levels after cessation of drug administration: other antivirals, dose not given; for virus replication levels: dosages similar to FMAU (2-4 mg/kg per day); for virus replication levels after cessation of treatment: dosages similar to FMAU, soon after cessation
Method: All woodchucks bearing chronic active hepatitis virus (Hantz, supra) were administered FMAU twice daily by interperitoneal injections of FMAU in the following dosages:
Studies were then undertaken to evaluate FMAU and FEAU in this animal model using woodchucks naturally chronically-infected with woodchuck hepatitis virus (24). It was assumed that these nucleosides would be anabolized to their nucleoside triphosphates within the animal. WHV replication was measured periodically by the endogenous DNA polymerase activity and by the detection of WHV DNA by the dot-blot hybridization assay. Three different dosages of FMAU and FEAU were investigated. FMAU at 2 mg/kg/day x 5, (given intraperitoneally TABLE VIII
In accordance with the procedures of Example 2, the FEAU inhibition of WHV replication was further studied at different doses administered orally to woodchucks through stomach tubes. Two groups of woodchucks with different initial WHV replication values were examined.
Seven woodchucks with high WHV replication were tested. High replication was defined as over 1000 counts per minute of DNA polymerase activity, and the mean replication was 1600.
Seven woodchucks with low WHV replication were tested. Low replication was defined as lower than 1000 counts per minute of DNA polymerase activity, and the mean replication was 600-800.

[4] = biological target: T1, HBV DNA polymerase; experiment: Time course of DNA synthesis with triphosphate analogs in place of the natural substrate; type: biochemical; conditions: for DNA synthesis with analog substituted for the natural substrate: ara-TTP for dTTP, ara-CTP for dCTP, ACVTP for dGTP; for HBV DNA synthesis after addition of the normal substrate: reaction started with analog instead of normal substrate (ACVTP 5 µM), normal substrate (100 µM dGTP) added after 120 minutes
Method: as §2
To determine the effect of the three analogs on viral DNA synthesis, a time course experiment was performed with HBV DNA polymerase. [³H] dATP was used as the labeled substrate. With all four nucleoside triphosphate substrates, the reaction was linear up to 60 mn. […] The substitution of dTTP by BVdUTP permitted the viral DNA synthesis up to 46% of the control after 3 hours of reaction. This value increased to 67% of the optimal activity after 4 h of reaction.
BVdUTP was the most efficient alternate substrate for both enzymes. The DNA synthesized with BVdUTP as alternate substrate was analyzed by agarose gel electrophoresis. Only incomplete filling of the single-stranded region of HBV or WHV DNA was obtained with BVdUTP.
The effect of ACVTP on HBV DNA synthesis was also studied in a time course experiment. [³H] dTTP was the labeled substrate. The reaction was initiated without dGTP or with 5 µm ACVTP instead of dGTP. Under these conditions, no incorporation of [³H] dTMP could be measured. After 120 minutes of reaction, 100 µM of dGTP was added. In the assay without dGTP only, the addition of dGTP increased DNA synthesis as expected. […] By comparison, when the reaction was started with the same proportion of ACVTP (5 µM) and dGTP (100 µM) a significant DNA synthesis was observed. Similar experiments were carried out with ara-ATP and ara-CTP.

[5] = tested on: HSV-2 (STRAIN G); conditions: cited from earlier work; for MDD: twice a day for 4 days from 5 hr after inoculation, calculated on day 21; for % SURVIVORS: twice a day for 4 days; for %WT GAIN ON DAY 7 / %WT GAIN ON DAY 14 / %WT GAIN ON DAY 21 / %WT GAIN ON DAY 30: compared to day 1
[6] = physchem
From the text: Ongoing testing of woodchucks bearing hepatitis virus is being conducted with the following additional pyrimidine nucleoside compounds: FIAC (2′-fluoro-2′-deoxy-arabinosyl-5-iodoocytosine) and FIAU (2′-fluoro-2′-deoxy-arabinosyl-5-iodouracil). As with FMAU, water is the preferred carrier.
If necessary, the solubility of the compounds FMAU, FIAC, and FIAU may be increased by adding acid or base to the aqueous solvent.

[7] = concentration of inhibitor giving a 50% inhibition of DNA polymerase activity

SMILES: Nc1nc(=O)n([C@@H]2O[C@H](COP(=O)(O)OP(=O)(O)OP(=O)(O)O)[C@@H](O)[C@@H]2F)cc1I [FIACTP]
nature of inhibition (Lineweaver-Burk plots) [1]: competitive | relative efficiency as inhibitor of HBV DNA polymerase [1]: most efficient inhibitor | IC50 [2, 7]: 100 nM

SMILES: Nc1ncc2ncn(COCCO)c2n1 [6-deoxy-acyclovir]
WHV DNA polymerase levels [3]: diminished | WHV DNA polymerase levels after cessation of drug administration [3]: rebounded to pretreatment levels

SMILES: Nc1nc2c(ncn2COCCOP(=O)(O)OP(=O)(O)OP(=O)(O)O)c(=O)[nH]1 [ACVTP]
DNA synthesis with analog substituted for the natural substrate [4]: did not increase the polymerization process | HBV DNA synthesis after addition of the normal substrate [4]: no DNA synthesis was observed | nature of inhibition (Lineweaver-Burk plots) [1]: competitive | IC50 [1]: 900 nM | ID₅₀ compared with FIACTP (times more) [1]: 18 times | IC50 [2, 7]: 700 nM

SMILES: Cc1cn([C@@H]2O[C@H](COP(=O)(O)OP(=O)(O)OP(=O)(O)O)[C@@H](O)[C@@H]2O)c(=O)[nH]c1=O [ara-TTP]
DNA synthesis with analog substituted for the natural substrate [4]: no significant DNA synthesis | IC50 [1]: 300 nM | IC50 [2, 7]: 400 nM

SMILES: CCc1cn([C@H]2C[C@H](O)[C@@H](CO)O2)c(=O)[nH]c1=O [EDU, 5-ethyl-2′-deoxyuridine, reference compound]
MDD ([5]; EDU 800 MG/KG/DAY): 7.6 | % SURVIVORS ([5]; EDU 800 MG/KG/DAY): 13% | %WT GAIN ON DAY 7 ([5]; EDU 800 MG/KG/DAY): -10% | %WT GAIN ON DAY 14 ([5]; EDU 800 MG/KG/DAY): -6% | %WT GAIN ON DAY 21 ([5]; EDU 800 MG/KG/DAY): 2% | %WT GAIN ON DAY 30 ([5]; EDU 800 MG/KG/DAY): 6% | MDD ([5]; EDU 1000 MG/KG/DAY): 8.6 | % SURVIVORS ([5]; EDU 1000 MG/KG/DAY): 33% | %WT GAIN ON DAY 7 ([5]; EDU 1000 MG/KG/DAY): 3% | %WT GAIN ON DAY 14 ([5]; EDU 1000 MG/KG/DAY): 13% | %WT GAIN ON DAY 21 ([5]; EDU 1000 MG/KG/DAY): 34% | %WT GAIN ON DAY 30 ([5]; EDU 1000 MG/KG/DAY): 43%

solubility ([6]; aqueous hydrochloric acid): ~250 mg/mL (≈ 674 mM)
SMILES: Nc1nc(=O)n([C@@H]2O[C@H](CO)[C@@H](O)[C@@H]2F)cc1I [FIAC, 1-(2'-deoxy-2'-fluoro-beta-D-arabinofuranosyl)-5-iodocytosine]
toxicity (previous results) ([3]; woodchucks, previous results): lethal toxicity

SMILES: Nc1ncnc2c1ncn2[C@@H]1O[C@H](COP(=O)(O)OP(=O)(O)OP(=O)(O)O)[C@@H](O)[C@@H]1O [ara-ATP]
HBV DNA synthesis after addition of the normal substrate [4]: increased the HBV DNA synthesis

SMILES: Nc1ncnc2c1ncn2[C@@H]1O[C@H](COP(=O)(O)O)[C@@H](O)[C@@H]1O [ara-AMP]
virus replication levels [3]: diminished | virus replication levels after cessation of treatment [3]: rebounded to pretreatment levels | WHV DNA polymerase levels [3]: diminished | WHV DNA polymerase levels after cessation of drug administration [3]: rebounded to pretreatment levels

SMILES: O=c1[nH]c(=O)n([C@H]2C[C@H](O)[C@@H](COP(=O)(O)OP(=O)(O)OP(=O)(O)O)O2)cc1/C=C/Br [BVdUTP]
nature of inhibition (Lineweaver-Burk plots) [1]: competitive | IC50 [1]: 250 nM | ID₅₀ compared with FIACTP (times more) [1]: 5 times | IC50 [2, 7]: 300 nM

SMILES: Cc1cn([C@@H]2O[C@H](COP(=O)(O)OP(=O)(O)OP(=O)(O)O)[C@@H](O)[C@@H]2F)c(=O)[nH]c1=O [FMAU-TP]
IC50 [1]: 25 nM | IC50 [2]: 50 nM

SMILES: Nc1nc2c(ncn2COC(CO)CO)c(=O)[nH]1 [DHPG]
WHV DNA polymerase levels [3]: diminished | WHV DNA polymerase levels after cessation of drug administration [3]: rebounded to pretreatment levels

SMILES: Nc1nc2c(ncn2COCCO)c(=O)[nH]1 [acyclovir]
virus replication levels [3]: diminished | virus replication levels after cessation of treatment [3]: rebounded to pretreatment levels

solubility [6]: increased many fold
SMILES: O=c1[nH]c(=O)n([C@@H]2O[C@H](CO)[C@@H](O)[C@@H]2F)cc1I [FIAU, 2′-fluoro-2′-deoxy-arabinosyl-5-iodouracil]

SMILES: Nc1ccn([C@@H]2O[C@H](COP(=O)(O)OP(=O)(O)OP(=O)(O)O)[C@@H](O)[C@@H]2O)c(=O)n1 [ara-CTP]
DNA synthesis with analog substituted for the natural substrate [4]: no significant incorporation | HBV DNA synthesis after addition of the normal substrate [4]: increased the HBV DNA synthesis | IC50 [1]: 1100 nM | relative efficiency as inhibitor of HBV DNA polymerase [1]: least efficient | IC50 [2, 7]: 1200 nM
